Columns and labels:
p27-KID = biological target: T1, p27-KID (Homo sapiens, UniProt P46527); assay: NMR 2D 1H-15N in-phase HSQC titration, binding affinity for p27:small molecule interactions; details: sixteen-point titration, 100 μM 15N-p27-KID, inhibitor 0-3 mM
T1 construct: 6xHis (N, cleaved yes); made in house; host or cells: E. coli (pET28a)
Description: 1D and 2D NMR analysis of these molecules led to the identification of 15 additional p27-D2-binding compounds (six with Group 1-like binding features and nine with Group 2-like features; Suppl. Fig. 3b and Suppl. Table 1b).
Sixteen point titrations of representative fragment hits from Group 1 and Group 2 (SJ572710 and SJ572403, respectively) into ^15N-p27-KID (100 μM) were recorded using an adopted “in-phase” 2D ^1H-^15N HISQC with proton decoupling during ^15N chemical shift labeling achieved with a WALTZ16 composite pulse with an amplitude of 7.1 kHz[54][55]. All experiments were collected at a Bruker Avance 800 MHz spectrometer equipped with TCI cryogenic gradient probe. The following molar ratios of ^15N-p27-KID (100 μM) to inhibitor were used: 1:0, 1:0.1, 1:1.5, 1:3, 1:4.5, 1:6, 1:7.5, 1:9, 1:10.5, 1:12, 1:15, 1:18, 1:21, 1:24, 1:27 and 1:30. Each spectrum was recorded with 256 (t1,max = 31.0 ms) and 1024 (t2,max = 106.5 ms) complex points in the ^15N and ^1H dimensions, respectively, with eight transients collected per point. The spectral resolution of the ^1H and ^15N dimensions was 2.4 and 1.7 Hz, respectively. […] The data was processed using the NMRPipe package[56] and analyzed using in-house scripts written in Python using the Scipy computing libraries and Mathematica (Wolfram Research). […]

p21-KID = biological target: T2, p21-KID (Homo sapiens, UniProt P38936); assay: 2D 1H-15N HSQC NMR with p21-KID; format: binding; details: 1 mM compound, 20 μM p21-KID, 298 K
T2 construct: made in house
T2 sequence (P38936 9-84 limits assumed): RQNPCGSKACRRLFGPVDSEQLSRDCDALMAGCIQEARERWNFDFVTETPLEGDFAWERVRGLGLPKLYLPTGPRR
Description: Figure 8 Interaction of p21-KID with representative p27 fragment hits.
Screening and validation NMR experiments were performed at 298 K (25 °C) using either a Varian Inova 600 MHz spectrometer equipped with a triple resonance (HCN) room temperature gradient probe or a Bruker Avance 600 MHz spectrometer equipped with TCI cryogenic gradient probe and a SampleJet sample changer. Fragment molecules were initially analyzed as pools of five molecules dissolved at 10 mM each in DMSO-D6. […] For initial fragment screening experiments, one-dimensional (1D) ^1H- and WaterLOGSY[35] NMR spectra were recorded for compound pools without and with protein. […] DMSO-D6 was added to maintain a constant concentration (2% vol/vol). […] Tryptophan and tyrosine, respectively, were titrated into ^15N-p27-KID (100 μM) up to 3 mM. […] 2D ^1H-^15N TROSY-HSQC NMR experiments with ^2H/^13C/^15N-p27-D2/Cdk2/cyclin A and SJ403 have been recorded at 308 K (35 °C). 2D ^1H-^15N HSQC experiments of representative fragment hits (1 mM of SJ319843, group 1 and SJ403, group 2, respectively) with ^15N-p21-KID (20 μM) were recorded at 298 K using a Bruker Avance 600 MHz spectrometer. NMR spectra were processed using Bruker Topspin software and analyzed using computer-aided resonance assignment (CARA) software.

Cdk2/cyclin A = biological target: T3, Cdk2/cyclin A (Homo sapiens, UniProt P24941); assay: Cdk2/cyclin A kinase activity assay (Histone H1 substrate); format: biochemical; details: SJ403 alone, 10 μM to 3 mM, 200 pM Cdk2/cyclin A
T3 construct: Full length human Cdk2, active Cdk2 (phosphorylated at threonine 160); truncated human cyclin A (residues 173–432); made in house
Description: Cdk2/Cyclin A (200 pM) was mixed with Histone H1 (15 μM; EMD Millipore), p27-D2 (200 nM) and varied amounts of lyophilized SJ403 and incubated overnight at 4 °C. The effect of the SJ403 compound on Cdk2 activity was determined by performing similar experiments in the absence of p27-D2. Subsequently, ATP (50 μM total concentration, of which 6 μCi γ ^32P-ATP (PerkinElmer, Inc)) was added to each reaction and further incubated for 35 minutes at 30 °C. […] The sample buffer contained 20 mM HEPES pH 7.3, 25 mM sodium β-glycerolphosphate, 15 mM MgCl2, 16 mM EGTA, 0.5 mM Na3VO4 and 10 mM DTT. The reactions were quenched by addition of SDS-gel loading buffer (5 μL) and then analyzed by SDS-PAGE (10 μL). The gels were dried at 70 °C under vacuum and a phosphoimager (GE Healthcare, Piscataway, NJ) was used to quantify the ^32P-Histone H1 bands. IC50 values were determined by curve fitting using KaleidaGraph software. Experiments were performed in triplicate and mean IC50 and standard deviations of the mean values are reported.

p27-D2/Cdk2/cyclin A = biological target: T4, p27-D2/Cdk2/cyclin A (Homo sapiens, UniProt P46527); assay: Cdk2/cyclin A kinase activity assay in the presence of p27-D2 (restoration of activity); format: biochemical
T4 construct: p27-D2 (residues 58-105 of human p27); 6xHis (N, cleaved yes); made in house; host or cells: E. coli for p27-D2
T4 sequence (P46527 58-105): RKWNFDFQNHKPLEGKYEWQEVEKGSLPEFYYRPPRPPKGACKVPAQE
Description: Figure 6 The small molecule SJ403 displaces p27-D2 from Cdk2/cyclin A and partially restores Cdk2 kinase activity. Analysis of Cdk2 kinase activity [within the Cdk2/cyclin A complex (200 pM) using Histone H1 as the substrate] in the presence of p27-D2 (200 nM) and varied concentrations of SJ403 (from 10 μM to 3 mM) (a) and varied concentrations of SJ403 alone (b). Cdk2 is partially active under the starting conditions in (a) and activity is enhanced through addition of SJ403. In the absence of p27-D2 (b), addition of SJ403 is associated with Cdk2 inhibition. All experiments were performed in triplicate and average values and the standard deviations of the means are shown.
Cdk2/Cyclin A (200 pM) was mixed with Histone H1 (15 μM; EMD Millipore), p27-D2 (200 nM) and varied amounts of lyophilized SJ403 and incubated overnight at 4 °C. The effect of the SJ403 compound on Cdk2 activity was determined by performing similar experiments in the absence of p27-D2. […] The reactions were quenched by addition of SDS-gel loading buffer (5 μL) and then analyzed by SDS-PAGE (10 μL). The gels were dried at 70 °C under vacuum and a phosphoimager (GE Healthcare, Piscataway, NJ) was used to quantify the ^32P-Histone H1 bands. IC50 values were determined by curve fitting using KaleidaGraph software. […]

T1 sequence (P46527 22-105): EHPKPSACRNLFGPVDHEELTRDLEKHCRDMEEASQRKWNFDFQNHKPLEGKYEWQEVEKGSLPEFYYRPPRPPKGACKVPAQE

- Kd (p27-KID): 2200 ± 300 µM
- effect on Cdk2/cyclin A activity in the absence of p27-D2 (Cdk2/cyclin A): substantially inhibited
- Cdk2 kinase activity after titration of SJ403 (of full kinase activity) (p27-D2/Cdk2/cyclin A; 200 nM p27-D2, 200 pM Cdk2/cyclin A, SJ403 10 μM to 3 mM, start 13%): ~ 20%
- increase in Cdk2 kinase activity (p27-D2/Cdk2/cyclin A; from 13% to ~20% of full activity, 200 nM p27-D2): > 50%
SMILES: CCn1c(C)c(C)n2c3c(=O)n(C)c(=O)n(C)c3nc12 [SJ403]
- interaction with p21-KID (1H chemical shift perturbations) (p21-KID): interacted with residues near W49 and W65 of p21

— PMC4623604, “Discovery of Small Molecules that Inhibit the Disordered Protein, p27^Kip1” (Scientific Reports, 2015)
